This note sets out measurements from patent US20250051355A1, “COMPOUNDS, COMPOSITIONS, AND METHODS” (ACONCAGUA BIO, INC., priority 2023, published 2025).

Each structure is given as a SMILES string.

Experiment [1] has as its target human calcitonin receptor (CTR) and RAMP3 (AMY3) (Homo sapiens, UniProt O60896+P30988). Nature of the experiment: Amylin Receptor cAMP Assay II. The class given is cell-based. Particulars: COS-7/AMY3 cells, cAMP dynamic 2 kit, read-out: Amylin Receptor cAMP Stimulation Activity: EC50. From the text:
Amylin Receptor cAMPAssay II
AMYRs are heterodimers of the class B calcitonin (CT) G-protein-coupled receptor (CTR) and receptor activity-modifying proteins (RAMPs). All three RAMPs can interact with the CTR and form AMY1, AMY2, AMY3 with RAMP1, RAMP2 and RAMP3, respectively. Like other class B1 GPCRs, the CT receptor family is canonically coupled to Gs-mediated cAMP production, and measurement of cAMP accumulation has been the primary assay used to determine peptide selectivity and potency.
(§1) To optimize functional activity directed toward Gas coupling, COS-7 cells were stably transfected with human calcitonin receptor (CTR) and RAMP3, simultaneously. 100×concentration of compound working solutions were prepared with 4-fold serial dilution in 384-well Echo LDV plate (Labcyte, Cat #LP-0200-BC). 200 nL/well 100×concentration of compound working solutions were moved to 384-well white microplate (Perkin Elmer, Cat #6007680) using Labcyte ECHO550. […] cells/mL COS-7/AMY3 cell suspensions prepared with assay buffer [HBSS containing 20 mM HEPES (Gibco, Cat #15630-080), 0.5 mM IBMX (Sigma, Cat #15879) and 0.1% Casein (Sigma, Cat #C4765)], 20 μL cell suspensions were added to each well of previous generated assay plate which already contains 200 nL compound at 100×concentration using ThermoFisher Multidrop Combi (2000 cells/well). Seal the plate and incubate at 37° C. with 5% CO2 for 30 min.
After incubation, the cAMP assay signal was generated using cAMP dynamic 2 kit (Revvity, Cat #62AM4PEC). 10 μL cAMP-d2 working solution was added to each well, followed by 10 μL Anti-cAMP antibody-cryptate working solution which was added to each well using CERTUS FLEX LIQUID DISPENSER The samples were then incubated at room temperature for 1 hour protected from light. the fluorescence was read at 665 and 615 nm with Reader PerkinElmer EnVision 2105.

The target of experiment [2] is T1, human calcitonin receptor (CTR) (Homo sapiens, UniProt P30988).
T1 construct: expressed in transfected cells; host or cells: COS-7 (COS7-human CTR Clone #2)
T1 sequence (P30988 25-474): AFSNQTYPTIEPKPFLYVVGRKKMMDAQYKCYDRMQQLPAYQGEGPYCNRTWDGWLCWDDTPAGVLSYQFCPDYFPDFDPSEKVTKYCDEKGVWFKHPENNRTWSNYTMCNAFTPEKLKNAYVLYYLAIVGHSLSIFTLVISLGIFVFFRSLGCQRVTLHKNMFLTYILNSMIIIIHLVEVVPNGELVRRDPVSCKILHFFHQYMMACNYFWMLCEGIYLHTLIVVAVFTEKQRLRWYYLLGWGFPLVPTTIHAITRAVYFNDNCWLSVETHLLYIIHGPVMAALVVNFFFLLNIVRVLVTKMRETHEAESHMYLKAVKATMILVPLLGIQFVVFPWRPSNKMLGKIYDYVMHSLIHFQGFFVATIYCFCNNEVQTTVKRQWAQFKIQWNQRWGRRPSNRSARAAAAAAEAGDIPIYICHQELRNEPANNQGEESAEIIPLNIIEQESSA
Nature of the experiment: Calcitonin receptor (CTR) cAMP Assay. The class given is cell-based. As to conditions: COS7-human CTR Clone #2 cells, cAMP dynamic 2 kit; read-out: Calcitonin Receptor cAMP Stimulation Activity: EC50.
From the text: Calcitonin receptor (CTR) cAMPAssay
The calcitonin receptor (CTR) belongs to the subfamily of GPCRs known as the secretin or ‘B’ family of GPCRs. Like other class B1 GPCRs, the CT receptor family is canonically coupled to Gs-mediated cAMP production, and measurement of cAMP accumulation has been the primary assay used to determine peptide selectivity and potency.
as §1, with “to create COS7-human CTR Clone #2 stable cell line. 100× concentration” for “and RAMP3, simultaneously. 100×concentration”, “COS7-human CTR Clone #2” for “COS-7/AMY3”
After incubation, the cAMP assay signal was generated using cAMP dynamic 2 kit (Revvity, Cat #62AM4PEC). […] cAMP-d2 working solution was added to each well, followed by 10 μL Anti-cAMP antibody-cryptate working solution which was added to each well using CERTUS FLEX LIQUID DISPENSER The samples were then incubated at room temperature for 1 hour protected from light. the fluorescence was read at 665 and 615 nm with Reader PerkinElmer EnVision 2105.

human calcitonin receptor (CTR) and RAMP3 (AMY3), sequence (O60896 24-148, one chain of several): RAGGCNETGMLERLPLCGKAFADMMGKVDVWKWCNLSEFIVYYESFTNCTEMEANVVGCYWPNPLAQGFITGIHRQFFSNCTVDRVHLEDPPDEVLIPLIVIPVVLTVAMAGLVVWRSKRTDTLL

The EC50 is the concentration giving half of the maximal effect. Regarding `Cc1nnc(-c2c(CCC3CCOCC3)nc3c(c2-c2cc4ncnc(N[C@@H]5CCc6ncccc65)c4s2)S(=O)(=O)CC3C(C)C)o1` (stereo partly drawn) [Compound 89, N—(R)-4-aza-1-indanyl(2-(3-isopropyl-6-(5-methyl-1,3,4-oxadiazol-2-yl)-1,1-dioxo-5-[2-(tetrahydro-2H-pyran-4-yl)ethyl]-1λ^6-thia-4-aza-7-indanyl}-1-thia-4,6-diaza-7-indenyl)amine], the EC50 in experiment [1] stood at 587 nM; in experiment [2], 42.9 nM.

For `Cc1nnc(-c2c(CCC3CCOCC3)nc3c(c2-c2cc4ccnc(N[C@@H]5CCc6ncccc65)c4o2)S(=O)(=O)CC3C(C)C)o1` (stereo partly drawn) [Compound 90, N—(R)-4-aza-1-indanyl(2-(3-isopropyl-6-(5-methyl-1,3,4-oxadiazol-2-yl)-1,1-dioxo-5-[2-(tetrahydro-2H-pyran-4-yl)ethyl]-1λ^6-thia-4-aza-7-indanyl}-1-oxa-6-aza-7-indenyl)amine], the EC50 in experiment [1] worked out at 1580 nM; in experiment [2], 998 nM.

Turning to `Cc1cc(-c2c(CCC3CCOCC3)nc3c(c2-c2cc4ccnc(N[C@@H]5CCc6ncccc65)c4s2)S(=O)(=O)CC3C(C)C)ccn1` (stereo partly drawn) [Compound 91, 7-(7-(((R)-6,7-dihydro-5H-cyclopenta[b]pyridin-5-yl)amino)thieno[2,3-c]pyridin-2-yl)-3-isopropyl-6-(2-methylpyridin-4-yl)-5-(2-(tetrahydro-2H-pyran-4-yl)ethyl)-2,3-dihydrothieno[3,2-b]pyridine 1,1-dioxide], the EC50 turned out to be 499 nM in experiment [1] and 45.2 nM in experiment [2].

Consider `Cc1cc(-c2c(CCC3CCOCC3)nc3c(c2-c2cc4ccnc(N[C@@H]5CCc6ncccc65)c4s2)S(=O)(=O)CC3C(C)C)ncn1` (stereo partly drawn) [Compound 92, N—(R)-4-aza-1-indanyl(2-(3-isopropyl-6-(6-methyl-4-pyrimidinyl)-1,1-dioxo-5-[2-(tetrahydro-2H-pyran-4-yl)ethyl]-1λ^6-thia-4-aza-7-indanyl}-1-thia-6-aza-7-indenyl)amine], for which the results for the EC50 in experiment [1] and in experiment [2] were 540 nM and 117 nM, respectively.

Consider `Cc1nnc(-c2c(CCC3CCOCC3)nc3c(c2-c2cc4ccnc(N[C@H](C)c5cncc(F)c5)c4s2)S(=O)(=O)CC3C(C)C)o1` (stereo partly drawn) [Compound 93, [(R)-1-(5-fluoro-3-pyridyl)ethyl](2-(3-isopropyl-6-(5-methyl-1,3,4-oxadiazol-2-yl)-1,1-dioxo-5-[2-(tetrahydro-2H-pyran-4-yl)ethyl]-1λ^6-thia-4-aza-7-indanyl}-1-thia-6-aza-7-indenyl)amine], for which the EC50 came out at 471 nM in experiment [1] and 42.2 nM in experiment [2].

With `Cc1nnc(-c2c(CCC3CCOCC3)nc3c(c2-c2cc4ccnc(N[C@@H]5CCc6ncccc65)c4s2)S(=O)(=O)CC3C)o1` (stereo partly drawn) [Compound 94, N—(R)-4-aza-1-indanyl(2-(3-methyl-6-(5-methyl-1,3,4-oxadiazol-2-yl)-1,1-dioxo-5-[2-(tetrahydro-2H-pyran-4-yl)ethyl]-1λ^6-thia-4-aza-7-indanyl}-1-thia-6-aza-7-indenyl)amine], the figures for the EC50 in experiment [1] and in experiment [2] were 1150 nM and 179 nM, respectively.

As to `Cc1nnc(-c2c(CCC3CCOCC3)nc3c(c2-c2cc4ccnc(N[C@@H]5CCc6ncccc65)c4s2)C(=O)N2CCOC[C@@H]32)o1` [Compound 95, (R)-4-(7-(((R)-6,7-dihydro-5H-cyclopenta[b]pyridin-5-yl)amino)thieno[2,3-c]pyridin-2-yl)-3-(5-methyl-1,3,4-oxadiazol-2-yl)-2-(2-(tetrahydro-2H-pyran-4-yl)ethyl)-7,8,10,10a-tetrahydro-5H-pyrido[2′,3′:3,4]pyrrolo[2,1-c][1,4]oxazin-5-one], the EC50 in experiment [1] amounted to 857 nM; in experiment [2], 35.6 nM.

Regarding `Cc1nnc(-c2c(CC3CCOCC3)nc3c(c2-c2cc4ccnc(N[C@@H]5CCc6ncccc65)c4s2)S(=O)(=O)CC3C(C)C)o1` (stereo partly drawn) [Compound 96, N—(R)-4-aza-1-indanyl(2-(3-isopropyl-6-(5-methyl-1,3,4-oxadiazol-2-yl)-1,1-dioxo-5-[(tetrahydro-2H-pyran-4-yl)methyl]-1λ^6-thia-4-aza-7-indanyl}-1-thia-6-aza-7-indenyl)amine], the EC50 in experiment [1] came out at 1300 nM; in experiment [2], 226 nM.

On to `COc1noc(-c2c(CCc3ccc(F)cc3)nc3c(c2-c2cc4ccnc(N[C@@H]5CCc6c(OC)cccc65)c4s2)C(=O)N2CCC[C@@H]32)n1` [Compound 97, (S)-2-(4-fluorophenethyl)-3-(3-methoxy-1,2,4-oxadiazol-5-yl)-4-(7-(((R)-4-methoxy-2,3-dihydro-1H-inden-1-yl)amino)thieno[2,3-c]pyridin-2-yl)-7,8,9,9a-tetrahydro-5H-pyrido[2,3-a]pyrrolizin-5-one], for which the figures for the EC50 in experiment [1] and in experiment [2] were 318 nM and 20.7 nM, respectively.

As for `Cc1nnc(-c2c(CCC3CC(C)OC(C)C3)nc3c(c2-c2cc4ncnc(N[C@@H]5CCc6ncccc65)c4s2)S(=O)(=O)CC3C(C)C)o1` (stereo partly drawn) [Compound 98, N—(R)-4-aza-1-indanyl(2-(5-[2-(2,6-dimethyltetrahydro-2H-pyran-4-yl)ethyl]-3-isopropyl-6-(5-methyl-1,3,4-oxadiazol-2-yl)-1,1-dioxo-1λ^8-thia-4-aza-7-indanyl}-1-thia-4,6-diaza-7-indenyl)amine], the EC50 in experiment [1] was 352 nM; in experiment [2] it was 39.2 nM.

Consider `Cc1nnc(-c2c(CCC3CCOC3)nc3c(c2-c2cc4ncnc(N[C@@H]5CCc6ncccc65)c4s2)S(=O)(=O)CC3C(C)C)o1` (stereo partly drawn) [Compound 99, N—(R)-4-aza-1-indanyl(2-(3-isopropyl-6-(5-methyl-1,3,4-oxadiazol-2-yl)-1,1-dioxo-5-[2-(tetrahydro-3-furyl)ethyl]-1λ^6-thia-4-aza-7-indanyl}-1-thia-4,6-diaza-7-indenyl)amine], for which the EC50 in experiment [1] amounted to 1900 nM; in experiment [2], 208 nM.

On to `Cc1nnc(-c2c(CCC3CCCO3)nc3c(c2-c2cc4ncnc(N[C@@H]5CCc6ncccc65)c4s2)S(=O)(=O)CC3C(C)C)o1` (stereo partly drawn) [Compound 100, N—(R)-4-aza-1-indanyl(2-(3-isopropyl-6-(5-methyl-1,3,4-oxadiazol-2-yl)-1,1-dioxo-5-[2-(tetrahydro-2-furyl)ethyl]-1λ^6-thia-4-aza-7-indanyl}-1-thia-4,6-diaza-7-indenyl)amine], for which the EC50 in experiment [1] is 6180 nM; in experiment [2], 184 nM.

As to `Cc1cnc(-c2c(CCC3CCOCC3)nc3c(c2-c2ccc4c(c2)oc(=O)n4Cc2ccc(C#N)cn2)C(=O)N2CCC[C@@H]32)o1` [Compound 101], the EC50 stood at 38.1 nM in experiment [1] and 2.23 nM in experiment [2].
